Source: patent publication US10316008B2, “KCNQ potassium channel agonist, and preparation method therefor and use thereof” (SHANGHAI INSTITUTE OF MATERIA MEDICA, CHINESE ACADEMY OF …, priority 2014, dated 2019)
pEC50: −log10 of the molar value. Where a name gives a salt, the structure may show the parent alone.

Legend:
KCNQ potassium channel = assay: Whole-cell voltage-clamp recording in CHO-K1 cells transfected with KCNQ plasmid; type: cell-based; details: for I/I0: current enhancement factor, −10 mV testing voltage, compound concentration 10 μM, >1 activating, <1 inhibiting; for ΔV1/2: shift of V1/2, negative sign = left-ward shift of current activation curve, compound 10 μM, CHO-K1 cells
Description: The culture medium for Chinese hamster oocytes (CHO-K1) (Culture Collection of Chinese Academy of Sciences): 50/50 DMEM/F-12 (Cellgro, Manassas, Va.), added with 10% fetal bovine serum (FBS) (Gibco, Australia) and 2 mM L-glutamic acid (Invitrogen). […] Lipofectamine 2000™ agent (Invitrogen) was used for Transfection according to the protocol thereof. GFP (green fluorescent protein) was cotransfected to be used as a indication of successful converting into KCNQ plasmid.
Whole-cell voltage-clamp recording was performed on an Axopatch-200B amplifier (Molecular Devices, Sunnyvale, Calif.) at room temperature. The electrode was made by drawing borosilicate glass capillary (World Precision Instruments, Sarasota, Fla.). The electric resistance of the electrode filled with an intracellular fluid is 3 to 5 MΩ. […] During the recording, an extracellular fluid was continuously perfused by using a BPS perfusion system (ALA Scientific Instruments, Westburg, N.Y.). The composition of the extracellular fluid (1 L) was as follows: 140 mM NaCl(Sigma), 5 mM KCl(Sigma), 2 mM CaCl2(Sigma), 1.5 mM MgCl2(Sigma), 10 mM HEPES(Sigma) and 10 mM glucose(Sigma) (pH was adjusted to 7.4 with NaOH). […] Series resistors compensate 60 to 80%. Up to date, multivoltage scheme was generally adopted, wherein the clamp voltage was set at −80 mV, stimulating voltage was a gradient voltage from −90 mV to 60 mV with interval of 10 mV, and the stimulating time for each voltage was 2000 ms.
V1/2 is the voltage at which 50% of cells were activated, ΔV1/2 is the shift amount of V1/2, negative sign (−) represents a left-ward shift of the current activation curve. I/I0 represents the current enhancement factor, wherein, I0 is the maximum induced current produced under stimulation of −10 mV testing voltage after administrating cells with blank extracellular fluid, I is the maximum induced current produced under stimulation of −10 mV testing voltage after administrating the drug (the compound concentration was 10 μM), I/I0>1 represents activating activity, and I/I0<1 represents inhibiting activity. N is the number of tested cells. NT represents non-tested.

[1] = system: convulsive mice induce by MES; assay: MES (maximum electroshock) induced convulsion model, oral perfusion; type: in vivo, KM mice; details: Mus musculus, 0.5 h; mice, oral perfusion, MES 30 mins after administration; read-out: ED50 (50% effective dose)
From the text: YLS-9A model physiological pharmaceutical electronic stimulator was used in the experiment to induce convulsion of mice, and specific parameters were set as follows: configuration 8, stimulating voltage: 160V, period of stimulation: 5.4 sec. Healthy KM mice (SPF level, male, body weight: 18 to 22 g) were selected for the experiment. After the ear tip of the mice was sufficiently wetted with physiological saline, the mice was electrically stimulated once with ear clip electrode, and tonic hind-limb seizure was deemed as indication of convulsion. The mice were screened one day before the experiment to weed out the dead mice and the ones without generalized tonic seizure. The qualified mice were caged randomly with access to water at liberty. Before the experiment started, the mice were fasted for 8 h.
The compounds to be tested were freshly formulated on the day of experiment. RTG hydrochloride was dissolved with ultrapure water to obtain a solution with desired concentration. K41.HCl and K43.HCl were formulated with 5% DMSO+95% of 1% Tween80, that is, a proper amount of the compound to be tested was weighted and, first, sufficiently dissolved in 5% DMSO, and then added with a desire volume of 1% Tween80 to be sufficiently suspended to form a suspension with a certain drug concentration. The mice screened one day before were randomly grouped with each group having 10 mice, marked, weighted and then administered with the compound to be tested or solvent (5% DMSO+95% (1% Tween 80)) by oral perfusion with administered volume of 0.2 ml/10 g. The dose range for each compound was 1 to 56 mg/kg for RTG, 1 to 40 mg/kg for K41.HCl, and 0.5 to 4 mg/kg for K43.HCl. 30 mins after administration, MES experiment was performed and the experimental parameters were the same as the above. The number of mice with generalized tonic-clonic convulsion in each group was recorded, the protection rate of each of the compounds to be tested on convulsive mice induce by MES was calculated and dose-response curve for each compound was plotted. The dose-response curve for each compound was obtained according to the analysis of Graphpad Prism 5 software, as shown in FIG. 3.

[2] = Stability of solution exposed to air; details: solution exposed to air (aqueous solution for RTG hydrochloride)
[3] = target: T1, KCNQ2 homotetramer channel (Homo sapiens, UniProt O43526); assay: KCNQ2 channel dose-response curve in CHO-K1 cells transfected with KCNQ2 plasmid; type: cell-based
T1 construct: expressed in transfected cells; host or cells: CHO-K1
Description: The culture medium for Chinese hamster oocytes (CHO-K1) (Culture Collection of Chinese Academy of Sciences): 50/50 DMEM/F-12 (Cellgro, Manassas, Va.), added with 10% fetal bovine serum (FBS) (Gibco, Australia) and 2 mM L-glutamic acid (Invitrogen). Expression of KCNQ channels: 24 h before transfection, CHO-K1 spreaded on a dish with a diameter of 60 mm. Lipofectamine 2000™ agent (Invitrogen) was used for Transfection according to the protocol thereof. GFP (green fluorescent protein) was cotransfected to be used as a indication of successful converting into KCNQ plasmid.
Whole-cell voltage-clamp recording was performed on an Axopatch-200B amplifier (Molecular Devices, Sunnyvale, Calif.) at room temperature. The electrode was made by drawing borosilicate glass capillary (World Precision Instruments, Sarasota, Fla.). The electric resistance of the electrode filled with an intracellular fluid is 3 to 5 MΩ. The composition of the intracellular fluid (1 L) was as follows: 145 mM KCl(Sigma), 1 mM MgCl2(Sigma), 5 mM EGTA(Sigma), 10 mM HEPES(Sigma) and 5 mM MgATP(Sigma) (pH was adjusted to 7.3 with KOH). During the recording, an extracellular fluid was continuously perfused by using a BPS perfusion system (ALA Scientific Instruments, Westburg, N.Y.). The composition of the extracellular fluid (1 L) was as follows: 140 mM NaCl(Sigma), 5 mM KCl(Sigma), 2 mM CaCl2(Sigma), 1.5 mM MgCl2(Sigma), 10 mM HEPES(Sigma) and 10 mM glucose(Sigma) (pH was adjusted to 7.4 with NaOH). Electric signal was filtered at 1 kHz and further converted into digital signal by using pClamp 9.2 software (Molecular Devices, Sunnyvale, Calif.) in DigiData 1322A. Series resistors compensate 60 to 80%. Up to date, multivoltage scheme was generally adopted, wherein the clamp voltage was set at −80 mV, stimulating voltage was a gradient voltage from −90 mV to 60 mV with interval of 10 mV, and the stimulating time for each voltage was 2000 ms.
The experimental procedure was the same as that in Electrophysiological Example 1. […]

[4] = system: motor coordination ability of mice; assay: Rotarod experiment, motor coordination ability (acute neurotoxicity); type: in vivo, KM mice; details: TD50 Rotarod / ED50 MES
Description: (§1) YLS-4C Rotarod system was used in the experiment, wherein the diameter of the rod was 3 cm and the rotate speed was set at 6 rpm. Healthy KM mice (SPF level) were selected, wherein male and female were equal, the body weight was 18 to 22 g. One day before experiment, the mice were place on the rotarod for training and screening. The tail tip of mice was held to make them creep on the rotarod during the training. […] The mice that jumped on the rotarod or griped the rotarod were weed out. In addition, three time periods were set with 1 min for each. […] The qualified mice were randomly caged according to the gender, and allowed to eat and drink freely.
(§2) On the day of the experiment, each compound to be tested was freshly formulated by the same method as described in MES experiment. If the compound was not sufficiently suspended, the suspension was further mixed by ultrasonication for 20 min so as to make the compound sufficiently suspended. […] 30 mins after administration, Rotarod experiment was performed and the experiment parameters were the same as the above. The number of mice that fell off from the rorarod was recorded, and the influence of each compound on motor coordination ability of mice was analyzed. The curve for dose of each compound verse motor deficit (percentage) of mice for each compound was obtained according to the analysis of Graphpad Prism 5 software and was shown in FIG. 4.

[5] = as above; type: in vivo, KM mice; details: both sexes, KM, mouse, in vivo; mice, oral perfusion, Rotarod 30 mins after administration; read-out: TD50 (50% acute neurotoxicity dose)
Description: as §1, §2

[6] = data from FDA Pharmacology Review(s), Potiga tablets; cited from earlier work

T1 sequence (O43526 whole entry): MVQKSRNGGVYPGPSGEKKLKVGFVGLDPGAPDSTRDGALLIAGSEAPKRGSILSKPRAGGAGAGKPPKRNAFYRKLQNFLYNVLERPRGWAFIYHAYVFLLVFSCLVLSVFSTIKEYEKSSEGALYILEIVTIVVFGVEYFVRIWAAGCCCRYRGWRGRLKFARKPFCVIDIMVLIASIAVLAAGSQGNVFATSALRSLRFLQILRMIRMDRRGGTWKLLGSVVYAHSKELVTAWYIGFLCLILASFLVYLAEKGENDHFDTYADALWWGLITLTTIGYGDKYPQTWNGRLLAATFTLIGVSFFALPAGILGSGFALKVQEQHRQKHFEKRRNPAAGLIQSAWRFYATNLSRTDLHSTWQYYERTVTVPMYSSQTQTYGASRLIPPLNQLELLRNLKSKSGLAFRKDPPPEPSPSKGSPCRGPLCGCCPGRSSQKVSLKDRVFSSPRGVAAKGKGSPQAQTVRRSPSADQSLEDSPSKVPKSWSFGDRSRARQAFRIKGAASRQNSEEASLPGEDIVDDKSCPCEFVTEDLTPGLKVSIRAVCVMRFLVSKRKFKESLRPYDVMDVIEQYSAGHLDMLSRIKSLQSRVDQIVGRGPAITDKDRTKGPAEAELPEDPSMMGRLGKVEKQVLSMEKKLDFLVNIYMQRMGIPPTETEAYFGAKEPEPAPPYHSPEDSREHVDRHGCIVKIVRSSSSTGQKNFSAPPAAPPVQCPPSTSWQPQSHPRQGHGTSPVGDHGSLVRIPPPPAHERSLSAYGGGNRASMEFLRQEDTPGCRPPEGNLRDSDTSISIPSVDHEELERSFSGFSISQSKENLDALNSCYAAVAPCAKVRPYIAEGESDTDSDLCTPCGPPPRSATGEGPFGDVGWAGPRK

Compound | I/I0 (KCNQ potassium channel) | ΔV1/2 (KCNQ potassium channel) [mV] | further results
C#CCN(Cc1ccc(F)cc1)c1ccc(NC(=O)OC)cc1C [K40•HCl] | 1.40 ± 0.04 | −3.42 ± 1.54 | –
C#CCN(Cc1ccc(F)cc1)c1ccc(NC(=O)OC)c(C#N)c1 [K42•HCl] | 0.52 ± 0.01 | −5.2 ± 0.7 | –
C#CCN(Cc1ccc(F)cc1)c1c(C)cc(NC(=O)OC)cc1C [K44•HCl] | 0.72 ± 0.05 | 13.47 ± 2.13 | –
C#CCN(Cc1ccc(F)cc1)c1ccc(NC(=O)OC)cc1OC [K45•HCl] | 0.57 ± 0.01 | −5.1 ± 0.9 | –
C#CCN(Cc1ccc(F)cc1)c1ccc(NC(=O)OC)c(OC)c1 [K46•HCl] | 1.52 ± 0.55 | −6.5 ± 2.1 | –
[2H]C([2H])(C#C)N(Cc1ccc(F)cc1)c1ccc(NC(=S)OC)cc1 [K47•HCl, methyl 4-(N-parafluorobenzyl-N-3,3-dideuteriumpropargyl-amino)phenylaminothioformate] | 2.10 ± 0.08 | −18.10 ± 0.03 | –
C#CCN(Cc1ccc(F)cc1)c1ccc(NC(=O)OC)c(OC(F)(F)F)c1 [K48•HCl] | 1.24 ± 0.16 | −13.2 ± 1.5 | –
C#CCN(Cc1ccc(F)cc1)c1ccc(NC(=S)OC)cc1 [K49•HCl, methyl 4-(N-parafluorobenzyl-N-propargyl-amino) phenylaminothioformate] | 4.4 ± 1.6 | −22 ± 2.5 | –
C#CCN(Cc1ccc(F)cc1)c1ccc(NC(=O)N(C)OC)cc1 [K51•HCl] | 1.61 ± 0.08 | −8.89 ± 1.12 | –
C#CCN(Cc1ccc(F)cc1)c1ccc(NC(=O)COC)cc1 [K52•HCl, N-[4-(N-p-fluorobenzyl-N-propargyl-amino)-phenyl]-2-methoxyacetamide] | 5.80 ± 0.52 | −10.93 ± 1.86 | –
C#CCN(Cc1ccc(F)cc1)c1ccc(NC(=O)COCC)cc1 [K53•HCl] | 7.31 ± 1.09 | −14.81 ± 0.92 | –
C#CCN(Cc1ccc(F)cc1)c1ccc(NC(=O)C2CCCO2)cc1 (stereo not shown) [K54•HCl] | 7.55 ± 1.92 | −30.9 ± 4.1 | –
C#CCN(Cc1ccc(F)cc1)c1ccc(NC(=O)CN(C)C)cc1 [K55•HCl] | 1.72 ± 0.14 | −10.76 ± 4.51 | –
C#CCN(Cc1ccc(F)cc1)c1ccc(NC(=O)CNC(C)=O)cc1 [K56•HCl] | 1.10 ± 0.10 | −2.0 ± 1.3 | –
C#CCN(Cc1ccc(F)cc1)c1ccc(NC(=O)CC(=O)OC)cc1 [K57•HCl] | 8.13 ± 2.57 | −31.55 ± 0.86 | –
C#CCN(Cc1ccc(F)cc1)c1ccc(NC(=O)C2CCC(F)(F)CC2)cc1 [K58•HCl] | 1.78 ± 0.19 | −33.68 ± 1.05 | –
CCOC(=O)Nc1ccc(NCc2ccc(F)cc2)cc1N [RTG, retigabine, reference compound] | – | – | ED50 [1]: 21.8 mg/kg; stability of solution exposed to air [2]: quickly become blue and insoluble precipitate is formed; pEC50 [3]: 5.88; P.I (Protective index)=TD50/ED50 [4]: 3.40; TD50 at 30 min [5]: 74.2 mg/kg; reported lethal dose [6]: 100 mg/kg
methyl 4-(N-parafluorobenzyl-N-3-cyclopropyl propargyl-amino) phenylaminothioformate [K59•HCl] | 1.01 ± 0.13 | −0.14 ± 2.33 | –
